Tests used:
[1] = target: T1, AAK1 (Homo sapiens, UniProt Q2M2I8); assay: P81 filter plate assay; format: biochemical; details: full-length human AAK1, Mu2 substrate
T1 construct: HA; expressed in transfected cells; host or cells: HEK293F

[2] = target: T1, AAK1; assay: HEK281 cell-based assay (phospho-mu2 Western blot in transfected HEK293F cells); details: 3 hours incubation, read-out: CBA IC50
Procedure, shortened: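 After 3 hours at 37° C. with compound (five 3-fold-spaced concentrations, DMEM+0.5% FBS), transiently transfected HEK293F cells expressing full-length human AAK1 and Flag-tagged mu2 were lysed. mu2 phosphorylation was read by anti-phospho-mu2 immunoblot, normalized against total mu2 by anti-Flag blot.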

T1 sequence (Q2M2I8 1-863 isoform Q2M2I8-2): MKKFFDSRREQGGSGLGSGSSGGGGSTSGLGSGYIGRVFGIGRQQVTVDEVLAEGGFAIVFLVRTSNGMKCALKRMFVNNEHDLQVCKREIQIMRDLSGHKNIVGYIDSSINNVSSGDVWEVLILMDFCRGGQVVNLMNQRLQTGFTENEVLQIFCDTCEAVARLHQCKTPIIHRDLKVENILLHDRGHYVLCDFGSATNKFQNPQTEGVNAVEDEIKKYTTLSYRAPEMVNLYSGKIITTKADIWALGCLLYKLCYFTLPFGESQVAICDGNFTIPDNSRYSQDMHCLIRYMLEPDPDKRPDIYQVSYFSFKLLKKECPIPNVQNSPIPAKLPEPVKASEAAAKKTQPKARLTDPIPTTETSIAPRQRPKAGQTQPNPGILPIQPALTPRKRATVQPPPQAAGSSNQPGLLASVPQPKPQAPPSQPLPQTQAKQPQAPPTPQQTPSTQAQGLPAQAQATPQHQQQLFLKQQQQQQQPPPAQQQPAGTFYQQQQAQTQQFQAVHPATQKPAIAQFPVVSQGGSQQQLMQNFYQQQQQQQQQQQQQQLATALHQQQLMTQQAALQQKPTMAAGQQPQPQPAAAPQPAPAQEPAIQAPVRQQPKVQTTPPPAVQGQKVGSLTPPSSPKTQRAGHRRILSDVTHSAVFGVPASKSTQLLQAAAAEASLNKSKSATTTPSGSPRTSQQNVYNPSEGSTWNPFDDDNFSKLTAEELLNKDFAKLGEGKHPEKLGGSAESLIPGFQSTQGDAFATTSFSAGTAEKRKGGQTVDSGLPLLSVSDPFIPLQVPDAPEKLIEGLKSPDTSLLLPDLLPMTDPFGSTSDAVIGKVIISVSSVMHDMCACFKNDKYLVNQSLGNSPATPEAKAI

IC50 [1] [nM] | IC50 [2] [nM] | Compound
≤ 10 | ≤ 100 | CC(C)(C)COC(=O)N1CCC[C@H]1CNc1ccc2ncc(-c3ccncc3)n2n1 [(S)-neopentyl 2-(((3-(pyridin-4-yl)imidazo[1,2-b]pyridazin-6-yl)amino)methyl)pyrrolidine-1-carboxylate]
≤ 10 | ≤ 10 | CC(C)(C)OC(=O)N1CCC[C@H]1CNc1ccc2ncc(-c3ccc(CN)cc3)n2n1 [(S)-tert-butyl 2-(((3-(4-(aminomethyl)phenyl)imidazo[1,2-b]pyridazin-6-yl)amino)methyl)pyrrolidine-1-carboxylate]
≤ 10 | ≤ 10 | CC(C)(C)OC(=O)N1CCC[C@H]1CNc1ccc2ncc(-c3ccc(C(N)=O)cc3)n2n1 [(S)-tert-butyl 2-(((3-(4-carbamoylphenyl)imidazo[1,2-b]pyridazin-6-yl)amino)methyl)pyrrolidine-1-carboxylate]
≤ 10 | ≤ 100 | CNC(=O)c1cnc2ccc(NC[C@@H]3CCCN3C(=O)OC(C)(C)C)nn12 [(S)-tert-butyl 2-(((3-(methylcarbamoyl)imidazo[1,2-b]pyridazin-6-yl)amino)methyl)pyrrolidine-1-carboxylate]
≤ 10 | ≤ 100 | CC(C)(C)OC(=O)N1CC[C@H]1CNc1ccc2ncc(Br)n2n1 [(S)-tert-butyl 2-(((3-bromoimidazo[1,2-b]pyridazin-6-yl)amino)methyl)azetidine-1-carboxylate]
≤ 10 | ≤ 100 | Cc1cnc2ccc(NC[C@@H]3CCCN3C(=O)OC(C)(C)C)nn12 [(S)-tert-butyl 2-(((3-methylimidazo[1,2-b]pyridazin-6-yl)amino)methyl)pyrrolidine-1-carboxylate]
≤ 10 | ≤ 10 | CC(C)(C)OC(=O)N1CCC[C@H]1CNc1ccc2ncc(-c3ccccc3)n2n1 [(S)-tert-butyl 2-(((3-phenylimidazo[1,2-b]pyridazin-6-yl)amino)methyl)pyrrolidine-1-carboxylate]
≤ 10 | ≤ 100 | COc1ccccc1-c1cnc2ccc(N3CC[C@H](N(C)C(=O)OC(C)(C)C)C3)nn12 [(S)-tert-butyl (1-(3-(2-methoxyphenyl)imidazo[1,2-b]pyridazin-6-yl)pyrrolidin-3-yl)(methyl)carbamate]
≤ 10 | ≤ 1000 | CN(C(=O)OC(C)(C)C)[C@H]1CCN(c2ccc3ncc(-c4ccncc4)n3n2)C1 [(S)-tert-butyl methyl(1-(3-(pyridin-4-yl)imidazo[1,2-b]pyridazin-6-yl)pyrrolidin-3-yl)carbamate]
≤ 10 | ≤ 100 | C=COC(=O)N1CCC[C@H]1CNc1ccc2ncc(-c3ccccc3OC)n2n1 [(S)-vinyl 2-(((3-(2-methoxyphenyl)imidazo[1,2-b]pyridazin-6-yl)amino)methyl)pyrrolidine-1-carboxylate]
≤ 10 | ≤ 100 | COc1ccccc1-c1cnc2ccc(N3CC[C@H](N(C)C(=O)N4CCCC4)C3)nn12 [(S)—N-(1-(3-(2-methoxyphenyl)imidazo[1,2-b]pyridazin-6-yl)pyrrolidin-3-yl)-N-methylpyrrolidine-1-carboxamide]
≤ 10 | ≤ 100 | COc1ncccc1-c1cnc2ccc(N3CC[C@H](N(C)C(=O)N4CCCC4)C3)nn12 [(S)—N-(1-(3-(2-methoxypyridin-3-yl)imidazo[1,2-b]pyridazin-6-yl)pyrrolidin-3-yl)-N-methylpyrrolidine-1-carboxamide]
≤ 10 | ≤ 100 | CN(C)C(=O)c1cccc(-c2cnc3ccc(N4CCN(C(=O)N5CCCC5)CC4)nn23)c1 [N,N-dimethyl-3-(6-(4-(pyrrolidine-1-carbonyl)piperazin-1-yl)imidazo[1,2-b]pyridazin-3-yl)benzamide]
≤ 100 | ≤ 1000 | c1cc(-c2cnc3ccc(NCCOC4CCCC4)nn23)n[nH]1 [N-(2-(cyclopentyloxy)ethyl)-3-(1H-pyrazol-3-yl)imidazo[1,2-b]pyridazin-6-amine]
≤ 10 | ≤ 1000 | Fc1ncccc1-c1cnc2ccc(NCCOC3CCCC3)nn12 [N-(2-(cyclopentyloxy)ethyl)-3-(2-fluoropyridin-3-yl)imidazo[1,2-b]pyridazin-6-amine]
≤ 10 | ≤ 100 | COc1cncc(-c2cnc3ccc(NCCOC4CCCC4)nn23)c1 [N-(2-(cyclopentyloxy)ethyl)-3-(5-methoxypyridin-3-yl)imidazo[1,2-b]pyridazin-6-amine]
≤ 10 | ≤ 100 | c1ccc(-c2cnc3ccc(NCCOC4CCCC4)nn23)nc1 [N-(2-(cyclopentyloxy)ethyl)-3-(pyridin-2-yl)imidazo[1,2-b]pyridazin-6-amine]
≤ 100 | ≤ 100 | CC(=O)Nc1cccc(-c2cnc3ccc(NCCOC4CCCC4)nn23)c1 [N-(3-(6-((2-(cyclopentyloxy)ethyl)amino)imidazo[1,2-b]pyridazin-3-yl)phenyl)acetamide]
≤ 10 | ≤ 100 | CC(C)(C)NC(=O)N1CCN(c2ccc3ncc(-c4ccccc4)n3n2)CC1 [N-(tert-Butyl)-4-(3-phenylimidazo[1,2-b]pyridazin-6-yl)piperazine-1-carboxamide]

IC50 [1] [nM] | IC50 [2] [nM] | Compound
≤ 10 | ≤ 100 | COc1ccccc1-c1cnc2ccc(N3CCN(C(=O)N(C)C(C)C)CC3)nn12 [N-isopropyl-4-(3-(2-methoxyphenyl)imidazo[1,2-b]pyridazin-6-yl)-N-methylpiperazine-1-carboxamide]
≤ 10 | ≤ 1000 | COc1ccccc1-c1cnc2ccc(N3CCN(C(=O)NC(C)C)CC3)nn12 [N-isopropyl-4-(3-(2-methoxyphenyl)imidazo[1,2-b]pyridazin-6-yl)piperazine-1-carboxamide]
≤ 10 | ≤ 1000 | CC(C)SC(=O)N1CCN(c2ccc3ncc(-c4ccccc4)n3n2)CC1 [S-Isopropyl 4-(3-phenylimidazo[1,2-b]pyridazin-6-yl)piperazine-1-carbothioate]
≤ 10 | ≤ 100 | O=C(N1CCCC1)N1CCN(c2ccc3ncc(-c4ccccn4)n3n2)CC1 [[4-(3-Pyridin-2-yl-imidazo[1,2-b]pyridazin-6-yl)-piperazin-1-yl]-pyrrolidin-1-yl-methanone]
≤ 10 | ≤ 1000 | CN(C(=O)OC(C)(C)C)[C@H]1CCN(c2ccc3ncc(Br)n3n2)C1 [[(S)-1-(3-Bromo-imidazo[1,2-b]pyridazin-6-yl)-pyrrolidin-3-yl]-methyl-carbamic acid tert-butyl ester]
≤ 10 | ≤ 100 | CCOC(=O)N1CCN(c2ccc3ncc(-c4ccccc4)n3n2)CC1 [ethyl 4-(3-phenylimidazo[1,2-b]pyridazin-6-yl)piperazine-1-carboxylate]
≤ 10 | ≤ 1000 | CC(C)OC(=O)N1CCN(c2ccc3ncc(-c4cccc5c4OC(F)(F)O5)n3n2)CC1 [isopropyl 4-(3-(2,2-difluorobenzo[d][1,3]dioxol-4-yl)imidazo[1,2-b]pyridazin-6-yl)piperazine-1-carboxylate]
≤ 10 | ≤ 100 | COc1cccc(-c2cnc3ccc(N4CCN(C(=O)OC(C)C)CC4)nn23)c1OC [isopropyl 4-(3-(2,3-dimethoxyphenyl)imidazo[1,2-b]pyridazin-6-yl)piperazine-1-carboxylate]
≤ 10 | ≤ 100 | COc1ccc(OC)c(-c2cnc3ccc(N4CCN(C(=O)OC(C)C)CC4)nn23)c1 [isopropyl 4-(3-(2,5-dimethoxyphenyl)imidazo[1,2-b]pyridazin-6-yl)piperazine-1-carboxylate]
≤ 10 | ≤ 100 | CC(C)OC(=O)N1CCN(c2ccc3ncc(-c4ccccc4OC(F)F)n3n2)CC1 [isopropyl 4-(3-(2-(difluoromethoxy)phenyl)imidazo[1,2-b]pyridazin-6-yl)piperazine-1-carboxylate]
≤ 10 | ≤ 100 | CC(C)OC(=O)N1CCN(c2ccc3ncc(-c4cccnc4OC(F)F)n3n2)CC1 [isopropyl 4-(3-(2-(difluoromethoxy)pyridin-3-yl)imidazo[1,2-b]pyridazin-6-yl)piperazine-1-carboxylate]
≤ 10 | ≤ 100 | CCOc1ccccc1-c1cnc2ccc(N3CCN(C(=O)OC(C)C)CC3)nn12 [isopropyl 4-(3-(2-ethoxyphenyl)imidazo[1,2-b]pyridazin-6-yl)piperazine-1-carboxylate]
≤ 10 | ≤ 10 | CCOc1ncccc1-c1cnc2ccc(N3CCN(C(=O)OC(C)C)CC3)nn12 [isopropyl 4-(3-(2-ethoxypyridin-3-yl)imidazo[1,2-b]pyridazin-6-yl)piperazine-1-carboxylate]
≤ 10 | ≤ 100 | COc1cccc(-c2cnc3ccc(N4CCN(C(=O)OC(C)C)CC4)nn23)c1F [isopropyl 4-(3-(2-fluoro-3-methoxyphenyl)imidazo[1,2-b]pyridazin-6-yl)piperazine-1-carboxylate]
≤ 10 | ≤ 100 | CC(C)OC(=O)N1CCN(c2ccc3ncc(-c4ccccc4F)n3n2)CC1 [isopropyl 4-(3-(2-fluorophenyl)imidazo[1,2-b]pyridazin-6-yl)piperazine-1-carboxylate]
≤ 10 | ≤ 10 | COc1nc(C)ccc1-c1cnc2ccc(N3CCN(C(=O)OC(C)C)CC3)nn12 [isopropyl 4-(3-(2-methoxy-6-methylpyridin-3-yl)imidazo[1,2-b]pyridazin-6-yl)piperazine-1-carboxylate]
≤ 10 | ≤ 10 | COc1ccccc1-c1cnc2ccc(N3CCN(C(=O)OC(C)C)CC3)nn12 [isopropyl 4-(3-(2-methoxyphenyl)imidazo[1,2-b]pyridazin-6-yl)piperazine-1-carboxylate]
≤ 10 | ≤ 10 | COc1ncccc1-c1cnc2ccc(N3CCN(C(=O)OC(C)C)CC3)nn12 [isopropyl 4-(3-(2-methoxypyridin-3-yl)imidazo[1,2-b]pyridazin-6-yl)piperazine-1-carboxylate]
